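These data come from cells grown in 96-well plates and exposed to compound for 48 hours at five concentrations. TGI: concentration producing complete growth inhibition.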
Experiments:
Assay in all cases: NCI-60 cell line screen, 48 h
RPMI-8226 leukemia = system: RPMI-8226 leukemia
MALME-3M melanoma = system: MALME-3M melanoma
SNB-78 CNS = system: SNB-78 CNS
LOX IMVI melanoma = system: LOX IMVI melanoma
A549 NSCLC = system: A549 NSCLC
NCI-H460 lung = system: NCI-H460 lung
UACC-257 melanoma = system: UACC-257 melanoma
SW-620 colon = system: SW-620 colon
786-0 renal = system: 786-0 renal
EKVX NSCLC = system: EKVX NSCLC
SF-539 CNS = system: SF-539 CNS
SK-MEL-2 melanoma = system: SK-MEL-2 melanoma
OVCAR-5 ovarian = system: OVCAR-5 ovarian
HCT-15 colon = system: HCT-15 colon
DMS 273 small cell lung = system: DMS 273 small cell lung
SNB-75 CNS = system: SNB-75 CNS
SK-MEL-28 melanoma = system: SK-MEL-28 melanoma
DLD-1 colon = system: DLD-1 colon
RXF 393 renal = system: RXF 393 renal
OVCAR-8 ovarian = system: OVCAR-8 ovarian
HOP-92 NSCLC = system: HOP-92 NSCLC
SN12C renal = system: SN12C renal
XF 498 CNS = system: XF 498 CNS
HOP-18 NSCLC = system: HOP-18 NSCLC
K-562 leukemia = system: K-562 leukemia
SF-268 CNS = system: SF-268 CNS
CAKI-1 renal = system: CAKI-1 renal
HOP-62 NSCLC = system: HOP-62 NSCLC
NCI-H23 lung = system: NCI-H23 lung
HT29 colon = system: HT29 colon
KM12 colon = system: KM12 colon
A498 renal = system: A498 renal
OVCAR-4 ovarian = system: OVCAR-4 ovarian
UACC-62 melanoma = system: UACC-62 melanoma
SNB-19 CNS = system: SNB-19 CNS
DMS 114 small cell lung = system: DMS 114 small cell lung
OVCAR-3 ovarian = system: OVCAR-3 ovarian
TK-10 renal = system: TK-10 renal
COLO 205 colon = system: COLO 205 colon
U251 CNS = system: U251 CNS
SF-295 CNS = system: SF-295 CNS
KM20L2 colon = system: KM20L2 colon
M19-MEL melanoma = system: M19-MEL melanoma
IGROV1 ovarian = system: IGROV1 ovarian
HCT-116 colon = system: HCT-116 colon
ACHN renal = system: ACHN renal
SK-OV-3 ovarian = system: SK-OV-3 ovarian
HL-60(TB) leukemia = system: HL-60(TB) leukemia
NCI-H522 lung = system: NCI-H522 lung
NCI-H226 lung = system: NCI-H226 lung
CCRF-CEM leukemia = system: CCRF-CEM leukemia
M14 melanoma = system: M14 melanoma
RXF-631 renal = system: RXF-631 renal
MOLT-4 leukemia = system: MOLT-4 leukemia
SR leukemia = system: SR leukemia
UO-31 renal = system: UO-31 renal
LXFL 529 NSCLC = system: LXFL 529 NSCLC
SK-MEL-5 melanoma = system: SK-MEL-5 melanoma
HCC-2998 colon = system: HCC-2998 colon

Measured: TGI

CCS[C@H]1NC(=O)C1[C@H](C)O[Si](C)(C)C(C)(C)C (stereo not given in full)
not listed: SK-OV-3 ovarian | HL-60(TB) leukemia | NCI-H522 lung | NCI-H226 lung | CCRF-CEM leukemia | M14 melanoma | RXF-631 renal | MOLT-4 leukemia | SR leukemia | UO-31 renal | LXFL 529 NSCLC | SK-MEL-5 melanoma | HCC-2998 colon
> 100 µM: all other assays above

CC(C)(C)C#C[P+](c1ccccc1)(c1ccccc1)c1ccccc1
2.91 µM: CAKI-1 renal
2.4 µM: OVCAR-5 ovarian
0.397 µM: COLO 205 colon
0.95 µM: HCT-116 colon
3.48 µM: TK-10 renal
0.448 µM: NCI-H522 lung
5.9 µM: HCT-15 colon
2.5 µM: DLD-1 colon
0.611 µM: SR leukemia
10.3 µM: ACHN renal
1.21 µM: M14 melanoma
1.39 µM: SF-539 CNS
0.979 µM: UACC-62 melanoma
7.28 µM: UO-31 renal
1.46 µM: SK-MEL-28 melanoma
0.984 µM: NCI-H226 lung
1.35 µM: SNB-78 CNS | A498 renal
0.687 µM: KM12 colon
2.63 µM: RXF-631 renal
0.212 µM: RPMI-8226 leukemia
0.986 µM: HCC-2998 colon
1.11 µM: HT29 colon
2.23 µM: IGROV1 ovarian
2.07 µM: UACC-257 melanoma
6.34 µM: HOP-18 NSCLC
0.699 µM: CCRF-CEM leukemia
1.32 µM: OVCAR-3 ovarian | U251 CNS
0.475 µM: NCI-H460 lung
1.48 µM: SF-268 CNS
0.843 µM: SW-620 colon
1.79 µM: HOP-62 NSCLC
1.57 µM: MOLT-4 leukemia
0.553 µM: SNB-75 CNS
4.1 µM: EKVX NSCLC
1.49 µM: SF-295 CNS
1.68 µM: MALME-3M melanoma
0.877 µM: SN12C renal
1.37 µM: RXF 393 renal
1.51 µM: 786-0 renal | SNB-19 CNS
1.67 µM: OVCAR-8 ovarian
1.91 µM: A549 NSCLC
1.45 µM: SK-MEL-2 melanoma
0.67 µM: LXFL 529 NSCLC
1.38 µM: NCI-H23 lung
0.689 µM: HOP-92 NSCLC
1.4 µM: LOX IMVI melanoma
1.81 µM: SK-OV-3 ovarian
1.19 µM: KM20L2 colon
0.634 µM: SK-MEL-5 melanoma
1.14 µM: M19-MEL melanoma
0.0865 µM: HL-60(TB) leukemia
1.42 µM: OVCAR-4 ovarian
4.83 µM: K-562 leukemia

COC1CCC(=C2C(=O)OC(C)(C)OC2=O)N1 (stereo not given)
not listed: SNB-78 CNS | HOP-92 NSCLC | A498 renal | OVCAR-3 ovarian | RXF-631 renal | SR leukemia | SK-MEL-5 melanoma
> 100 µM: all other assays above

COCCNC(=O)C1C(=O)N(CCOC)C(=O)/C1=N/N (stereo not given)
not listed: NCI-H460 lung | OVCAR-5 ovarian | RXF 393 renal | OVCAR-8 ovarian | HOP-18 NSCLC | HOP-62 NSCLC | A498 renal | OVCAR-4 ovarian | DMS 114 small cell lung | COLO 205 colon | RXF-631 renal | SK-MEL-5 melanoma | HCC-2998 colon
> 100 µM: all other assays above
